Consider two compounds from patent US20250100962A1 (CITY OF HOPE, priority 2023, published 2025).

In one series the test system is 3T3-L1 preadipocytes. In words: Clock and Wnt gene expression in 3T3-L1 cells. It counts as cell-based. The settings on record: RT-qPCR. The protocol: RNA extraction and RT-qPCR analysis. PureLink RNA Mini Kit (Invitrogen) were used to isolate total RNA from cells. cDNA was generated using Revert Aid RT kit (ThermoFisher) and quantitative PCR was performed using SYBR Green Master Mix (Thermno Fisher) in triplicates on ViiA 7 Real-Time PCR System (Applied Biosystems). Relative expression levels were determined using the comparative Ct method with normalization to 361B4 as internal control.
(Real-time PCR tracks product formation cycle by cycle.)

Series [1] concerns 3T3-L1 preadipocytes containing Per2::dLuc luciferase reporter. In words: Bioluminescence monitoring of Per2::dLuc reporter in 3T3-L1 preadipocytes. It counts as cell-based. The protocol:
Generation of stable adipogenic progenitor cell lines containing Per2::dLuc. 3T3-L1 preadipocytes and the C3H10T1/2 mesenchymal stem cells obtained from ATCC were used for Per2:: dLuc lentiviral transduction and stable clone selection using puromycin, as described previously (Guo et al., 2012). Briefly, cells were transfected with lentiviral packaging plasmids (pSPAX.2 and pMD2.G) and lentivirus vectors Per2::dLuc using PEI Max (Polysciences). At 48 hours post-transfection, lentiviruses were collected. 3T3-L1 and C3H10T1/2 […] cells were infected using collected lentiviral media supplemented with polybrene. 24 hours following lentiviral infection, stable cell lines were selected in the presence of 2 μg/ml puromycin.
Continuous Bioluminescence monitoring of Per2:: dLuc luciferase reporter. 3T3-L1 and C3H10T1/2 cells containing a Per2::dLuc luciferase reporter were generated as described previously (Xiong et al., 2023). […] Raw and subtracted results of real-time bioluminescence recording data for 6 days were exported, and data was calculated as luminescence counts per second, as previously described (Xiong, Li, Nam et al., 2022). […] Briefly, raw data following the first cycle from day 2 to […] were fitted to a linear baseline, and the baseline-subtracted data (polynomial number=1) were fitted to a sine wave, from which period length and goodness of fit and damping constant were determined.

A short description of series [2]: In vivo pharmacokinetics after intravenous tail vein injection. The settings on record: 1 mg/kg intravenous. Also noted: species or system mouse. The protocol: FIGS. 47A-47C. In vivo PK study of CM002 by intravenous administration in C57/BL6 mice. We next performed pharmacokinetic analysis of CM002 in normal wild-type C57/BL6 mice to guide in vivo studies. Following intravenous delivery of CM002 via tail vein injection at 1 mg/kg of body weight in three mice of 12 weeks of age, we monitored its plasma concentrations at 6 hours (FIG. 47A) and 24 hours (FIG. 47B). […] Quantitative analysis of key pharmacokinetic parameters is shown in FIG. 47C, based on 1 mg/kg/day intravenous administration.

A further series concerns cells. In words: Cellular toxicity observed across cell assays. In kind it is cell-based.

For the compound `[H]/N=C(\N/C(=N/[H])NCCCCCCNC(=N)NC(=N)Nc1ccc(Cl)cc1)Nc1ccc(Cl)cc1` [CHX, chlorhexidine], in the series with 3T3-L1 preadipocytes, the “core clock gene expression” value was “Largely similar effects on inducing core clock genes”. Moreover, in series [1], the clock cycling amplitude result is “increasing amplitude” and the clock period length result is reported as “reducing period length”.

For orientation: half-life means how long it takes for the measured level to halve. Regarding `CCCCCC/C=N/C(=N)NC(=N)Nc1ccc(Cl)cc1` [CM002], in series [2], the “plasma level at half-life” value is ~100 ng/mL, the “time of tissue re-distribution” value was ≤ 30 min and the “time to being largely cleared” value is ≤ 24 h. Moreover, the maximal plasma concentration in series [2] (C57/BL6 mice) is given as ~1.47 mg/L. Besides, the half-life in series [2] (mouse, plasma, C57/BL6 mice) is 6.76 ± 1.33 h. For the same compound, the “viability of cells at 1 μM” value in the series with cells was “maintained”.
